Columns and labels:
[1] = tested on: Rat; experiment: concentration in plasma after dosing; conditions: dosed: 2-Hydroxy-4-methoxybenzophenone, 500 mg/kg, oral, Male, F344
[2] = tested on: Mouse; experiment: concentration in plasma after dosing; conditions: 3 h; dosed: 2-Hydroxy-4-methoxybenzophenone; 250 mg/kg; oral; Female; B6C3F1
[3] = tested on: Mouse; experiment: concentration in plasma after dosing; conditions: 0.25 h; dosed: 2-Hydroxy-4-methoxybenzophenone; 50 mg/kg; iv; Male; B6C3F1
[4] = tested on: Rat; experiment: concentration in plasma after dosing; conditions: dosed: Methyleugenol, 37 mg/kg, oral, Male, F344/N
[5] = tested on: Rat; experiment: concentration in plasma after dosing; conditions: dosed: Methyleugenol, 37 mg/kg, oral, Male, F344/N; remark: listed apart in the source
[6] = tested on: Rat; experiment: concentration in liver after dosing; conditions: 3 h; dosed: Perfluorohexane-1-sulphonic acid – potassium salt; 16 mg/kg; oral; Female; F344
[7] = tested on: Rat; experiment: concentration in liver after dosing; conditions: 6 h; dosed: Perfluorohexane-1-sulphonic acid – potassium salt; 16 mg/kg; oral; Female; Harlan Sprague Dawley
[8] = tested on: Rat; experiment: concentration in liver after dosing; conditions: 528 h; dosed: Perfluorohexane-1-sulphonic acid – potassium salt; 16 mg/kg; oral; Female; F344
[9] = tested on: Rat; experiment: concentration in plasma after dosing; conditions: 0.5 h; dosed: Primidone; 130 mg/kg; oral; Male; Harlan Sprague Dawley
[10] = tested on: Rat; experiment: concentration in plasma after dosing; conditions: 0.25 h; dosed: Primidone; 30 mg/kg; oral; Female; F344
[11] = tested on: Rat; experiment: concentration in plasma after dosing; conditions: 20 min; dosed: Pyridine; 10 mg/kg; oral; Female; Harlan Sprague-Dawley
[12] = tested on: Rat; experiment: concentration in plasma after dosing; conditions: dosed: Pyridine, 5 mg/kg, oral, Male, F344
[13] = tested on: Rat; experiment: concentration in plasma after dosing; conditions: 2 h; dosed: Pyridine; 10 mg/kg; iv; Male; F344
[14] = tested on: Rat; experiment: concentration in plasma after dosing; conditions: dosed: Pyridine, 5 mg/kg, iv, Male, F344
[15] = tested on: Rat; experiment: concentration in plasma after dosing; conditions: 5 min; dosed: alpha-Thujone; 25 mg/kg; oral; Male; Harlan Sprague Dawley
[16] = tested on: Rat; experiment: concentration in plasma after dosing; conditions: 1.5 h; dosed: alpha-Thujone; 50 mg/kg; oral; Female; Harlan Sprague Dawley
[17] = tested on: Rat; experiment: concentration in plasma after dosing; conditions: 10 min; dosed: alpha-Thujone; 50 mg/kg; oral; Female; Harlan Sprague Dawley
[18] = tested on: Rat; experiment: concentration in brain after dosing; conditions: 1.5 h; dosed: alpha-Thujone; 50 mg/kg; oral; Male; Harlan Sprague Dawley
[19] = tested on: Rat; experiment: concentration in plasma after dosing; conditions: 2 min; dosed: alpha-Thujone; 50 mg/kg; oral; Female; Harlan Sprague Dawley
[20] = tested on: Rat; experiment: concentration in brain after dosing; conditions: 1.5 h; dosed: alpha-Thujone; 50 mg/kg; oral; Female; Harlan Sprague Dawley
[21] = tested on: Rat; experiment: concentration in brain after dosing; conditions: 5 min; dosed: alpha-Thujone; 25 mg/kg; oral; Male; Harlan Sprague Dawley
[22] = tested on: Rat; experiment: concentration in brain after dosing; conditions: 6 h; dosed: alpha-Thujone; 50 mg/kg; oral; Female; Harlan Sprague Dawley
[23] = tested on: rat; experiment: concentration in blood after dosing; negative times count back from the end of exposure; conditions: dosed: trichloroethylene, 50 ppm, inhalation, duration: 4 hr, male, Sprague Dawley

O=C(c1ccccc1)c1ccc(O)cc1O [2,4-Dihydroxybenzophenone]
[1]
Conditions | concentration in plasma [µg/mL]
0.5 h | 0.162
12 h | 0.148

Conditions | concentration in plasma [µg/mL]
[2] | 0.162
[3] | 1.94

C=CCc1ccc(OC)c(OC)c1 [Methyleugenol]
concentration in plasma [µg/mL]
Conditions | 5 h | 6 h | 10 min | 20 min
[4] | 0.00702 | – | – | 0.0538
[5] | – | 0.0111 | 0.176 | –

O=S(=O)([O-])C(F)(F)C(F)(F)C(F)(F)C(F)(F)C(F)(F)C(F)(F)F.[K+] [Perfluorohexane-1-sulphonic acid – potassium salt]
Conditions | concentration in liver [ng/g]
[6] | 63900
[7] | 33000
[8] | 29800

CCC1(c2ccccc2)C(=O)NCNC1=O [Primidone]
Conditions | concentration in plasma [µg/mL]
[9] | 47.9
[10] | 15.1

c1ccncc1 [Pyridine]
Conditions | concentration in plasma [µg/mL]
[11] | 2.07
[13] | 0.32

concentration in plasma [µg/mL]
Conditions | 1 h | 2 h | 8 h | 14 h
[12] | 2.53 | – | 1.39 | –
[14] | – | 2.78 | – | 0.089

CC(C)[C@]12CC(=O)[C@H](C)[C@H]1C2 [alpha-Thujone]
Conditions | concentration in brain [ng/g] | concentration in plasma [ng/mL]
[15] | – | 1170
[16] | – | 560
[17] | – | 1160
[18] | 1800 | –
[19] | – | 146
[20] | 1360 | –
[21] | 360 | –
[22] | 42.5 | –

OCC(Cl)(Cl)Cl [trichloroethanol (free)]
[23]
Conditions | concentration in blood [µg/mL]
0.1729 h | 1.25
0.1865 h | 2.02
0.2651 h | 1.14
0.2753 h | 0.828
0.3836 h | 2.26
0.4311 h | 1.34
0.5027 h | 1.18
0.594 h | 0.829
0.9111 h | 1.11
0.9517 h | 1.01
1.022 h | 1.13
1.11 h | 0.898
1.769 h | 0.955
1.908 h | 1.01
2.006 h | 0.889
3.915 h | 1.65
3.921 h | 0.897
4.003 h | 0.757
5.934 h | 0.757
5.937 h | 0.703
5.949 h | 1.38
5.978 h | 0.655
7.942 h | 1.26
7.97 h | 0.667
7.992 h | 0.595
9.919 h | 0.656
9.986 h | 0.538
10.01 h | 0.509
10.11 h | 1.12
11.91 h | 0.627
11.95 h | 1.03
11.98 h | 0.546
12.02 h | 0.481
13.9 h | 0.557
13.93 h | 0.469
13.94 h | 1.04
13.99 h | 0.534
15.9 h | 0.507
15.93 h | 0.893
15.95 h | 0.448
17.94 h | 0.348
17.96 h | 0.35
41 s | 0.978
86 s | 1.2

[23], during exposure
Conditions | concentration in blood [µg/mL]
-169 s | 1.35
-3.506 h | 0.437
-3.433 h | 0.315
-3.408 h | 0.626
-3.033 h | 1.06
-3.009 h | 0.547
-3 h | 0.486
-2.975 h | 0.327
-2.015 h | 0.83
-2.001 h | 1.56
-1.996 h | 0.845
-1.989 h | 0.628
-1.021 h | 1.08
-1.008 h | 1.89
-0.9983 h | 0.79
-0.9843 h | 0.968
-0.032 h | 1.94
